The structures appear in SMILES notation.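 Five compound concentrations were applied to cells in 96-well plates for 48 hours; endpoints were derived by simple linear interpolation of the resulting dose-response curve. GI50: concentration for 50% inhibition of growth. TGI denotes the concentration required for complete inhibition of growth.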

Some test systems named below: MCF7 breast; NCI-H23 lung; NCI-H460 lung; MDA-MB-231 breast; RPMI-8226 leukemia; MOLT-4 leukemia; UACC-257 melanoma; T-47D breast; SF-268 CNS; SNB-19 CNS.
Assay in all cases: NCI-60 cell line screen, 48 h

Take `COc1ccc2[nH]c(O)c(/C=c3/cc4c(c(-c5ccc(F)cc5)n3)=Nc3ccccc3-4)c2c1`: the GI50 in the assay with MCF7 breast is 1.36 µM; in the assay with NCI-H23 lung, 2.58 µM; in the assay with NCI-H460 lung it was 1.82 µM; in the assay on MDA-MB-231 breast it was 1.2 µM; in the assay with RPMI-8226 leukemia it was 3.73 µM; in the assay on MOLT-4 leukemia, 1.97 µM. The GI50 is 6.77 µM with UACC-257 melanoma, 2.06 µM with T-47D breast, 5.43 µM with SF-268 CNS and 3.6 µM with SNB-19 CNS. Moreover, the TGI is 3.32 µM with MCF7 breast; 10.9 µM in the assay on NCI-H23 lung; 4.01 µM in the assay on NCI-H460 lung; 3.87 µM with MDA-MB-231 breast; 32.9 µM in the assay on RPMI-8226 leukemia; 5.21 µM in the assay with MOLT-4 leukemia. Moreover, the TGI in the assay with UACC-257 melanoma was 21 µM; with T-47D breast it was 6.94 µM; in the assay with SF-268 CNS it was 43.8 µM; with SNB-19 CNS, greater than 100 µM.
In the case of `C=C1c2nc3ccccc3n2C=C(c2ccc(OC)cc2)N1c1ccc(OCCN2CCOCC2)cc1`, the TGI in the assay with MCF7 breast is greater than 100 µM; with NCI-H23 lung, greater than 100 µM; in the assay with NCI-H460 lung, greater than 49.9 µM; in the assay on MDA-MB-231 breast, greater than 100 µM; with RPMI-8226 leukemia, 9.05 µM; with MOLT-4 leukemia, greater than 100 µM. The TGI in the assay on UACC-257 melanoma was 17.6 µM; in the assay with T-47D breast, greater than 100 µM; with SF-268 CNS, greater than 31.9 µM; in the assay with SNB-19 CNS it was greater than 100 µM.
As for `O=[N+]([O-])c1ccc2ncccc2c1CCc1c([N+](=O)[O-])ccc2ncccc12`, the TGI in the assay with MCF7 breast, in the assay with NCI-H23 lung, in the assay with NCI-H460 lung, with MDA-MB-231 breast, in the assay on RPMI-8226 leukemia and with MOLT-4 leukemia was greater than 100 µM in each case. Besides, the TGI in the assay on UACC-257 melanoma, in the assay on T-47D breast, with SF-268 CNS and with SNB-19 CNS was greater than 100 µM throughout.
In the case of `Cc1nc2c(=O)[nH]c3ccc(Cl)cc3c2o1`, the TGI with MCF7 breast, with NCI-H23 lung, in the assay with NCI-H460 lung, in the assay with MDA-MB-231 breast, in the assay on RPMI-8226 leukemia and with MOLT-4 leukemia was greater than 100 µM each time. In addition, the TGI in the assay on UACC-257 melanoma, in the assay with T-47D breast, with SF-268 CNS and with SNB-19 CNS was greater than 100 µM each time.
As for `C=CCN1CCC2(CC1)NC(=O)c1ccccc1O2`, the TGI with MCF7 breast, in the assay with NCI-H23 lung, in the assay on NCI-H460 lung, in the assay with MDA-MB-231 breast, in the assay with RPMI-8226 leukemia and in the assay with MOLT-4 leukemia was greater than 100 µM in each case. Also, the TGI with UACC-257 melanoma, in the assay on T-47D breast, with SF-268 CNS and in the assay with SNB-19 CNS was greater than 100 µM throughout.
Take `COc1cc(C=O)cc(C=Nc2ccc(S(N)(=O)=O)cc2)c1O`: the TGI was greater than 100 µM with MCF7 breast; greater than 100 µM with NCI-H23 lung; 74.6 µM with NCI-H460 lung; 76.4 µM in the assay with MDA-MB-231 breast; 33.3 µM in the assay with RPMI-8226 leukemia; 64.2 µM in the assay with MOLT-4 leukemia. The TGI with UACC-257 melanoma was 38.5 µM; in the assay with T-47D breast, greater than 100 µM; in the assay with SF-268 CNS, 39.2 µM; in the assay on SNB-19 CNS it was greater than 100 µM.
For the molecule `OC1c2ccccc2C(O)C2OC12` (stereo not given), the TGI with MCF7 breast, in the assay with NCI-H23 lung, in the assay with NCI-H460 lung, with MDA-MB-231 breast, with RPMI-8226 leukemia and in the assay with MOLT-4 leukemia was greater than 100 µM throughout. For the same molecule, the TGI with UACC-257 melanoma, in the assay on T-47D breast, in the assay on SF-268 CNS and in the assay on SNB-19 CNS was greater than 100 µM throughout.
On to `O=P1(c2ccccc2)C2=CCC=CC2C(c2ccccc2)N1Cc1ccccc1` (stereo not given), for which the TGI came out at 25.6 µM with MCF7 breast; 24.8 µM with NCI-H23 lung; 28.1 µM with NCI-H460 lung; 33.6 µM in the assay with MDA-MB-231 breast; 30.5 µM in the assay on RPMI-8226 leukemia; 38.7 µM with MOLT-4 leukemia. The TGI was found to be 34.9 µM in the assay on UACC-257 melanoma, 36.8 µM with T-47D breast, 30.9 µM in the assay with SF-268 CNS and 41.2 µM in the assay on SNB-19 CNS.
Regarding `OCC(O)C(O)C(O)C(O)/C=N/Nc1nc(O)c(/C=C2\C=Nc3ccccc32)[nH]1` (stereo not given), the TGI in the assay with MCF7 breast, with NCI-H23 lung, in the assay on NCI-H460 lung, in the assay on MDA-MB-231 breast, in the assay with RPMI-8226 leukemia and in the assay with MOLT-4 leukemia was greater than 100 µM each time. Also, the TGI in the assay on UACC-257 melanoma, in the assay on T-47D breast, in the assay on SF-268 CNS and in the assay with SNB-19 CNS was greater than 100 µM in each case.
With `CCOP(=O)(OCC)C(C)(C)OC(=O)NC#N`, the TGI with MCF7 breast, in the assay on NCI-H23 lung, in the assay on NCI-H460 lung, with MDA-MB-231 breast, in the assay with RPMI-8226 leukemia and with MOLT-4 leukemia was greater than 100 µM in each case. The TGI in the assay with UACC-257 melanoma, in the assay on T-47D breast, with SF-268 CNS and with SNB-19 CNS was greater than 100 µM each time.
In the case of `CC(/C=N/NC1=NCCCN1)=N\NC1=NCCCN1`, the TGI with MCF7 breast, in the assay on NCI-H23 lung, with NCI-H460 lung, in the assay on MDA-MB-231 breast, with RPMI-8226 leukemia and in the assay on MOLT-4 leukemia was greater than 100 µM in each case. Further, the TGI in the assay on UACC-257 melanoma, in the assay with T-47D breast, in the assay on SF-268 CNS and in the assay on SNB-19 CNS was greater than 100 µM throughout.
Turning to `CC1CN=C(c2ccc(COc3ccc(C4=NCC(C)N4)cc3)cc2)N1` (stereo not given), the TGI in the assay on MCF7 breast, in the assay with NCI-H23 lung, in the assay on NCI-H460 lung, in the assay with MDA-MB-231 breast, with RPMI-8226 leukemia and with MOLT-4 leukemia was greater than 100 µM throughout. Also, the TGI was 68.3 µM in the assay with UACC-257 melanoma, greater than 100 µM in the assay with T-47D breast, greater than 100 µM with SF-268 CNS and greater than 100 µM in the assay on SNB-19 CNS.
As for `N=C(c1cccs1)C1(N2CCCCC2)CCCCC1`, the TGI in the assay on MCF7 breast was determined as 30.5 µM; in the assay on NCI-H23 lung it was 43.5 µM; with NCI-H460 lung, 30 µM; in the assay on MDA-MB-231 breast it was 31 µM; with RPMI-8226 leukemia, 33.8 µM; in the assay with MOLT-4 leukemia, 30.9 µM. In addition, the TGI in the assay on UACC-257 melanoma came out at 31.8 µM; in the assay with T-47D breast, 27.1 µM; in the assay with SF-268 CNS it was 50.8 µM; with SNB-19 CNS, 34.8 µM.
In the case of `CCCCCCCCCCCCCCCCP(=O)([O-])OCC[N+](C)(C)C`, the TGI with MCF7 breast was found to be 35.3 µM; in the assay on NCI-H23 lung, 40 µM; in the assay with NCI-H460 lung, 18.8 µM; with MDA-MB-231 breast it was 35.2 µM; with RPMI-8226 leukemia, 34.2 µM; with MOLT-4 leukemia, 33.4 µM. Moreover, the TGI is 32.7 µM in the assay on UACC-257 melanoma, 35.5 µM with T-47D breast, 34.1 µM with SF-268 CNS and greater than 57.4 µM in the assay on SNB-19 CNS.
Consider `CC1=CC(=O)/C(=C/n2c(=S)[nH]c3ccccc32)C(=O)O1`, for which the TGI in the assay on MCF7 breast, in the assay on NCI-H23 lung, with NCI-H460 lung, with MDA-MB-231 breast, with RPMI-8226 leukemia and with MOLT-4 leukemia was greater than 100 µM each time. Moreover, the TGI in the assay on UACC-257 melanoma, in the assay on T-47D breast, in the assay on SF-268 CNS and with SNB-19 CNS was greater than 100 µM in each case.
Turning to `C=CC(Br)(CBr)CCC(Br)C(C)C` (stereo not given), the TGI in the assay on MCF7 breast worked out at 3.75 µM; with NCI-H23 lung, 20.8 µM; with NCI-H460 lung it was 18.4 µM; with MDA-MB-231 breast, 10.3 µM; with RPMI-8226 leukemia, 4 µM; in the assay on MOLT-4 leukemia, 5.21 µM. The TGI was determined as 24 µM with UACC-257 melanoma, 0.971 µM in the assay on T-47D breast, 25.7 µM in the assay with SF-268 CNS and 23.4 µM in the assay on SNB-19 CNS.
On to `COc1cccc(-c2cc(=O)c3cc(Cl)cnc3[nH]2)c1`, for which the TGI in the assay with MCF7 breast was greater than 78.8 µM; in the assay with NCI-H23 lung it was 8.3 µM; with NCI-H460 lung, greater than 100 µM; in the assay on MDA-MB-231 breast it was greater than 65.5 µM; with RPMI-8226 leukemia, greater than 62.1 µM; in the assay on MOLT-4 leukemia it was 28.3 µM. The TGI was greater than 100 µM with UACC-257 melanoma, greater than 100 µM in the assay with T-47D breast, greater than 87.3 µM in the assay on SF-268 CNS and greater than 77.2 µM in the assay with SNB-19 CNS.
Take `O=C1c2cc([N+](=O)[O-])sc2C(=O)c2ccsc21`: the TGI in the assay on MCF7 breast was 0.69 µM; in the assay on NCI-H23 lung, 1.15 µM; in the assay on NCI-H460 lung it was 0.853 µM; with MDA-MB-231 breast, 1.15 µM; in the assay on RPMI-8226 leukemia, 0.751 µM; in the assay with MOLT-4 leukemia it was 0.456 µM. In addition, the TGI in the assay on UACC-257 melanoma came to 0.641 µM; in the assay on T-47D breast, 1.53 µM; in the assay with SF-268 CNS, 1.06 µM; in the assay with SNB-19 CNS, 3.33 µM.
Turning to `O=C(Oc1cccc(Cl)c1)c1cc2cc(CCl)ccc2oc1=O`, the TGI in the assay with MCF7 breast is 99.6 µM; with NCI-H23 lung it was greater than 100 µM; with NCI-H460 lung it was greater than 100 µM; in the assay with MDA-MB-231 breast it was greater than 100 µM; in the assay with RPMI-8226 leukemia it was greater than 100 µM; in the assay on MOLT-4 leukemia, greater than 100 µM. Besides, the TGI was 31.3 µM in the assay with UACC-257 melanoma, greater than 100 µM in the assay on T-47D breast, greater than 100 µM in the assay on SF-268 CNS and greater than 100 µM in the assay on SNB-19 CNS.
In the case of `C[N+](C)([O-])CCCNc1ccnc2cccc([N+](=O)[O-])c12`, the TGI is greater than 100 µM with MCF7 breast; greater than 100 µM in the assay on NCI-H23 lung; 31.3 µM with NCI-H460 lung; greater than 100 µM in the assay with MDA-MB-231 breast; 57.6 µM with RPMI-8226 leukemia; 67.6 µM in the assay on MOLT-4 leukemia. Further, the TGI is greater than 100 µM with UACC-257 melanoma, greater than 100 µM in the assay with T-47D breast, 97.5 µM in the assay with SF-268 CNS and greater than 100 µM in the assay with SNB-19 CNS.
